Broadly, the IC50 is the concentration that gives 50% inhibition. A word on the AUC: it is the area under the concentration-time curve, a measure of exposure.

These results are taken from US9844550B2, “Phtalazinone derivatives and manufacturing process thereof” (ILDONG PHARM CO., LTD., priority 2013, dated 2017).

In data set [1] the test system is MDA-MB-436 breast cancer cell line. Nature of the data set: Cell viability assay (MDA-MB-436). The class given is cell-based. The settings on record: Homo sapiens, 144 h; MDA-MB-436 cells, treated 6 days. The procedure, abridged:
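MDA-MB-436 breast cancer cells in DMEM/F12 with 10% FBS, treated 24 h after seeding with graded compound concentrations for 6 days at 37 °C, 5% CO2, medium changed every 3 days. Viability read with a fluorescence reagent; IC50 derived.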

Data set [2] relates to Capan-1 pancreatic cancer cell line. Nature of the data set: Cell viability assay (Capan-1). The class given is cell-based. To be noted: Homo sapiens, 240 h; Capan-1 cells, treated 10 days. The procedure: 3. Cell Viability Assay (Capan-1)
Cell viability assay was performed by using Capan-1 cell line to measure cytotoxicity of compounds in the present invention. Capan-1 pancreatic cancer cell line was seeded into 96-well plates at 37° C. under 5% CO2 atmosphere using IMDM (Sigma) containing 10% FBS (Hyclone). After 24 hr incubation, cells were treated with the invented compounds at various concentrations for 10 days. After 7-day incubation, the medium was changed. 10 days later, A fluorescence reagent was used to determine the IC50 values.

A short description of another data set: Mouse pharmacokinetics. It is filed as in vivo. Details: concentration or dose not given beside the values. To be noted: Balb/c male mice, blood samples 15 to 1140 min, LC-MS/MS. On the procedure:
To evaluate the pharmacokinetics test, the invented compounds (from I-25 to I-1171) were determined as follows. Blood samples are collected at 15, 30, 60, 120, 240, 480, 1140 min. Quantification is by using a LC-MS/MS method specific to the selected compound. Pharmacokinetics parameters are calculated using WinNonLinnon compartmental analysis software.

Data set [3] deals with LNCaP prostate cancer cell line. Nature of the data set: Cell viability assay (LNCaP). The class given is cell-based. The settings on record: Homo sapiens, 264 h; LNCaP cells, treated 11 days. The procedure:
4. Cell Viability Assay (LNCaP)
Cell viability assay was performed by using LNCaP cell line to measure cytotoxicity of compounds in the present invention. LNCaP prostate cancer cell line was seeded into 96-well plates at 37° C. under 5% CO2 atmosphere using RPMI-1640 (Hyclone) containing 10% FBS (Hyclone). After 24 hr incubation, cells were treated with the invented compounds at various concentrations for 11 days. The medium was changed every 3 to 4 day. 11 days later, A fluorescence reagent was used to determine the IC50 values.

The subject of data set [4] is Capan-1 Human pancreatic cancer cells. Nature of the data set: In vivo antitumoral efficacy, Capan-1 subcutaneous xenograft. The settings on record: Capan-1 xenograft in Balb/c nude mice. On the procedure:
To evaluate the in vivo antitumoral efficacy, the invented compounds (I-80˜171) was determined as a result to follows.
Capan-1 Human pancreatic cancer cells were established as subcutaneous xenografts by injection of 8×10^6 cells into the flanks of adult female Balb/c nude mice. Mice with established tumors (160-250 mm^3) were selected for study (n=6/treatment group). The test compounds were formulated in DW and administered orally (po) at a dose of 30˜200 mg/kg. The vehicle alone was administered to control groups. Animals were dosed 5 days per week (Monday through Friday) for 3 consecutive weeks.
Animals were weighed and tumor size was determined twice weekly by caliper measurements, and tumor volumes were calculated (volume=[…] (mm^3), where l and w refer to the larger and smaller dimensions collected at each measurement). The mean tumor volumes of each group were calculated. The change in mean treated tumor volume was divided by the change in mean control tumor volume, multiplied by 100 and subtracted from 100% to give the tumor growth inhibition for each group.

[5] abbreviates: 100 mg/kg po qd x 5, 3 consecutive weeks.
The mark [6] stands for this setting: 200 mg/kg po qd x 5, 3 consecutive weeks.

Each structure is given as a SMILES string.

For `O=C(c1cc(Cc2n[nH]c(=O)c3ccccc23)ccc1F)N1CC(NC2CCC2)C1` [Compound I-25, 4-(3-(3-(cyclobutylamino)azetidine-1-carbonyl)-4-fluorobenzyl)phthalazin-1(2H)-one], the half-maximal inhibitory concentration (IC50) in data set [1] lay in the range of 5 to 50 nM; in data set [2] it was 300 to 1000 nM. This compound gave an AUC in the data set “Mouse pharmacokinetics” of 831 ng·h/mL.

Regarding `O=C(c1cc(Cc2n[nH]c(=O)c3ccccc23)ccc1F)N1CC(NC2CC2)C1` [Compound I-26, 4-(3-(3-(cyclopropylamino)azetidine-1-carbonyl)-4-fluorobenzyl)phthalazin-1(2H)-one], the results for the IC50 in data set [1] and in data set [2] were 5 to 50 nM and 300 to 1000 nM, respectively. Also, in “Mouse pharmacokinetics”, the AUC is 3350 ng·h/mL.

Regarding `O=C(c1cc(Cc2n[nH]c(=O)c3ccccc23)ccc1F)N1CC[C@@H](NC2CCC2)C1` [Compound I-30, (R)-4-(3-(3-(cyclobutylamino)pyrrolidine-1-carbonyl)-4-fluorobenzyl)phthalazin-1(2H)-one], the IC50 in data set [1] lay in the range of 50 to 300 nM. In addition, in “Mouse pharmacokinetics”, the AUC was 521 ng·h/mL.

For the compound `CC(C)CNC1CN(C(=O)c2cc(Cc3n[nH]c(=O)c4ccccc34)ccc2F)C1` [Compound I-35, 4-(4-fluoro-3-(3-(isobutylamino)azetidine-1-carbonyl)benzyl)phthalazin-1(2H)-one], the IC50 is no more than 5 nM in data set [1], 300 to 1000 nM in data set [2] and greater than 1000 nM in data set [3]. The compound also gave an AUC in “Mouse pharmacokinetics” of 2250 ng·h/mL.

With `CCCCNC1CN(C(=O)c2cc(Cc3n[nH]c(=O)c4ccccc34)ccc2F)C1` [Compound I-53, 4-(3-(3-(butylamino)azetidine-1-carbonyl)-4-fluorobenzyl)phthalazin-1(2H)-one], the IC50 in data set [1] was no more than 5 nM; in data set [2], 300 to 1000 nM; in data set [3], greater than 1000 nM. In the data set “Mouse pharmacokinetics”, the AUC is 1250 ng·h/mL.

In data set [1], `O=C(c1cc(Cc2n[nH]c(=O)c3ccccc23)ccc1F)N1CC(N2CCC2)C1` [Compound I-75, 4-(3-([1,3′-biazetidine]-1′-carbonyl)-4-fluorobenzyl)phthalazin-1(2H)-one] came in with an IC50 of 5 to 50 nM. In the data set “Mouse pharmacokinetics”, the AUC was 475 ng·h/mL.

Take `O=C(c1cc(Cc2n[nH]c(=O)c3ccccc23)ccc1F)N1CC(NC2(C(F)(F)F)CC2)C1` [Compound I-80, 4-(4-fluoro-3-(3-((1-(trifluoromethyl)cyclopropyl)amino)azetidine-1-carbonyl)benzyl)phthalazin-1(2H)-one]: the figures for the IC50 in data set [1], in data set [2] and in data set [3] were no more than 5 nM, 50 to 300 nM and 50 to 300 nM, respectively. The “% TGI” value in data set [4] (setting [5]) was 75.9%; in data set [4] (setting [6]), 103.9%. The compound also showed an AUC in the data set “Mouse pharmacokinetics” of 2020 ng·h/mL.

On to `COC[C@@H](C)NC1CN(C(=O)c2cc(Cc3n[nH]c(=O)c4ccccc34)ccc2F)C1` [Compound I-83, (R)-4-(4-fluoro-3-(3-((1-methoxypropan-2-yl)amino)azetidine-1-carbonyl)benzyl)phthalazin-1(2H)-one], for which the figures for the IC50 in data set [1], in data set [2] and in data set [3] were 5 to 50 nM, 300 to 1000 nM and greater than 1000 nM, respectively. The compound further showed an AUC in the data set “Mouse pharmacokinetics” of 567 ng·h/mL.

The compound `O=C(c1cc(Cc2n[nH]c(=O)c3ccccc23)ccc1F)N1CC[C@@H](Nc2ncccn2)C1` [Compound I-120, (R)-4-(4-fluoro-3-(3-(Pyrimidin-2-ylamino)pyrrolidine-1-carbonyl)benzyl)phthalazin-1(2H)-one] came in with a 50% inhibitory concentration (IC50) in data set [1] of no more than 5 nM. Also, the AUC in “Mouse pharmacokinetics” was 510 ng·h/mL.

Regarding `O=C(c1cc(Cc2n[nH]c(=O)c3ccccc23)ccc1F)N1CC[C@@H](Nc2ccc(C(F)(F)F)cn2)C1` [Compound I-131, (R)-4-(4-fluoro-3-(3-((5-(trifluoromethyl)pyridin-2-yl)amino)pyrrolidine-1-carbonyl)benzyl)phthalazin-1(2H)-one], the concentration for half-maximal inhibition (IC50) in data set [1] lay within 50 to 300 nM; in data set [3], 5 to 50 nM.

In turn, `O=C(c1cc(Cc2n[nH]c(=O)c3ccccc23)ccc1F)N1CC[C@@H](N2CCC2)C1` [Compound I-135, (R)-4-(3-(3-(azetidin-1-yl)pyrrolidine-1-carbonyl)-4-fluorobenzyl)phthalazin-1(2H)-one] returned an IC50 in data set [1] of 5 to 50 nM. In addition, the AUC in the data set “Mouse pharmacokinetics” is 153 ng·h/mL.

As to `O=C(c1cc(Cc2n[nH]c(=O)c3ccccc23)ccc1F)N1CC(CN2CCCC2)C1` [Compound I-140, 4-(4-fluoro-3-(3-(pyrrolidin-1-ylmethyl)azetidine-1-carbonyl)benzyl)phthalazin-1(2H)-one], the concentration for half-maximal inhibition (IC50) in data set [1] is no more than 5 nM; in data set [2], 300 to 1000 nM. Further, the AUC in the data set “Mouse pharmacokinetics” is 295 ng·h/mL.

For the compound `O=C(c1cc(Cc2n[nH]c(=O)c3ccccc23)ccc1F)N1CC(CN2CCCCC2)C1` [Compound I-141, 4-(4-fluoro-3-(3-(piperidin-1-ylmethyl)azetidine-1-carbonyl)benzyl)phthalazin-1(2H)-one], the IC50 in data set [1] lay within 5 to 50 nM; in data set [2] it was 300 to 1000 nM. In “Mouse pharmacokinetics”, the AUC was 193 ng·h/mL.

Take `O=C(c1cc(Cc2n[nH]c(=O)c3ccccc23)ccc1F)N1CC(CN2CCC2)C1` [Compound I-142, 4-(3-(3-(azetidin-1-ylmethyl)azetidine-1-carbonyl)-4-fluorobenzyl)phthalazin-1(2H)-one]: the IC50 in data set [1] was in the range of 5 to 50 nM; in data set [2] it was 300 to 1000 nM. The compound also gave an AUC in the data set “Mouse pharmacokinetics” of 88.8 ng·h/mL.

Consider `O=C(c1cc(Cc2n[nH]c(=O)c3ccccc23)ccc1F)N1CC(CNC2CC2)C1` [Compound I-143, 4-(3-(3-((cyclopropylamino)methyl)azetidine-1-carbonyl)-4-fluorobenzyl)phthalazin-1(2H)-one], for which the values for the IC50 in data set [1] and in data set [2] were no more than 5 nM and 50 to 300 nM, respectively. Also, the AUC in “Mouse pharmacokinetics” was 673 ng·h/mL.

On to `CC(C)CNCC1CN(C(=O)c2cc(Cc3n[nH]c(=O)c4ccccc34)ccc2F)C1` [Compound I-146, 4-(4-fluoro-3-(3-((isobutylamino)methyl)azetidine-1-carbonyl)benzyl)phthalazin-1(2H)-one], for which the values for the IC50 in data set [1], in data set [2] and in data set [3] were 5 to 50 nM, 300 to 1000 nM and greater than 1000 nM, respectively. In “Mouse pharmacokinetics”, the exposure (AUC) was 1090 ng·h/mL.

With `O=C(c1cc(Cc2n[nH]c(=O)c3ccccc23)ccc1F)N1CC(CNC2CCC2)C1` [Compound I-148, 4-(3-(3-((cyclobutylamino)methyl)azetidine-1-carbonyl)-4-fluorobenzyl)phthalazin-1(2H)-one], in data set [1], the IC50 was no more than 5 nM. Moreover, the AUC in the data set “Mouse pharmacokinetics” was 472 ng·h/mL.

Regarding `C#CCNCC1CN(C(=O)c2cc(Cc3n[nH]c(=O)c4ccccc34)ccc2F)C1` [Compound I-149, 4-(4-fluoro-3-(3-((prop-2-yn-1-ylamino)methyl)azetidine-1-carbonyl)benzyl)phthalazin-1(2H)-one], the IC50 is no more than 5 nM in data set [1], 300 to 1000 nM in data set [2] and greater than 1000 nM in data set [3]. The same compound showed an AUC in the data set “Mouse pharmacokinetics” of 169 ng·h/mL.

For the compound `Cl.O=C(c1cc(Cc2n[nH]c(=O)c3ccccc23)ccc1F)N1CC(NC2CCCC2)C1` [Compound I-158, 4-(3-(3-(cyclopentylamino)azetidine-1-carbonyl)-4-fluorobenzyl)phthalazin-1(2H)-one hydrochloride], the entries for the “% TGI” value in data set [4] (setting [5]) and in data set [4] (setting [6]) were 44.9% and 80.9%, respectively.

With `Cl.O=C(c1cc(Cc2n[nH]c(=O)c3ccccc23)ccc1F)N1CC(NCC2CC2)C1` [Compound I-160, 4-(3-(3-((cyclopropylmethyl)amino)azetidine-1-carbonyl)-4-fluorobenzyl)phthalazin-1(2H)-one hydrochloride], the “% TGI” value worked out at 55.8% in data set [4] (setting [5]) and 88.2% in data set [4] (setting [6]). This compound also gave an AUC in “Mouse pharmacokinetics” of 2250 ng·h/mL.
